From patent EP0500785B1, “A HUMAN T CELL REACTIVE FELINE PROTEIN (TRFP) ISOLATED FROM HOUSE DUST AND USES THEREFOR” (IMMULOGIC PHARMACEUTICAL CORPORATION, priority 1989, dated 2002)

What was measured:
Type in all cases: cell-based, human
[1] = system: Patient 155 TRFP secondary primed T cells; assay: Induction of T cell anergy/tolerance in vitro, followed by proliferation assay on antigenic challenge
Method: The T cell cultures were exposed to 5µg/ml TRFP on day 0 and 5µg/ml, 10µg/ml, 10µg/ml and 20µg/ml thereafter. The peptide treated cultures were exposed to 1µg/ml peptide on day 0 and 1µg/ml, 1µg/ml, 2µg/ml and 5µg/ml thereafter. In addition, 0.5ml of fresh media was replaced on day 2. The cells were then washed and set up for a proliferation assay with 2x10^4 T cells and 2x10^4 irradiated (2500 Rad) autologous EBV and various doses of antigen. T cell proliferation was measured as incorporation of tritiated thymidine at day 9. […]

[2] = system: TRFP primed T cell cultures; assay: T cell proliferation assay (tritiated thymidine incorporation) of TRFP-primed T cells restimulated with allergens or peptides; conditions: for T cell stimulatory activity: summarising Tables 2 and 3
Method: Peripheral blood mononuclear cells (PBMC) were purified from 60 ml of heparinized blood from cat allergic patients. PBMC were subsequently treated as described below, although in individual cases, the length of time of cultivation with IL-2 and/or IL-4 and the specific peptides used for stimulation varied.
10 ml of PBMC from patient 131 at 10^6/ml were cultured at 37°C for 7 days in the presence of 5 micrograms purified TRFP/ml RPMI-1640 supplemented with 5% pooled human AB serum. Viable cells were purified by Ficoll-Hypaque centrifugation and cultured for three weeks at 5 units recombinant human IL-2/ml and 5 units recombinant human IL-4/ml. The resting T cells were then restimulated (secondary) with 5 micrograms TRFP at 2 x 10^5/ml in the presence of irradiated (3500 Rads) autologous PBMC at a concentration of 5 x 10^5/ml for three days, purified by Ficoll-Hypaque centrifugation and grown in 5 units IL-2 and 5 units IL-4/ml for two weeks. For assay, 2 x 10^4 resting secondary T cells were restimulated (tertiary) in the presence of 5 x 10^4 irradiated (3500 Rads) autologous PBMC or 2 x 10^4 transformed B cells (20,000 Rads) with various concentrations of allergens or their fragments in a volume of 200 microliters in a 96-well round bottom assay plates for 3 days. Each well then received 1 microCurie tritiated (methyl) thymidine for 16 hours. The counts incorporated were collected onto glass fiber filters and processed for liquid scintillation counting.
Antigens used: T cell reactive feline protein (TRFP), Hollister-Stier cat epithelium skin test reagent (CST), IPC ragweed pollen extract (pollen), and synthetic peptides derived from the TRFP protein sequence (See Figures 6 and 7). Significant T cell proliferation is generally regarded as greater than 2.5 times the media control (T cells and antigen presenting cells alone).
Alternatively, PBMC were treated as follows: the primary stimulated cells were cultured in IL-2/IL-4 for two weeks. The resting T cells derived from this culture were tested in a secondary assay with some, but not all, of the above allergens. […] This type of epitope analysis has allowed the definition of T cell epitopes present in TRFP.

[3] = system: Peripheral blood mononuclear cells (PBMC); assay: Cytokine profiles (IL-2, IFN-γ, IL-4 cDNA) by PCR in a primary 36 hour PBMC culture; parameters: key to STIMULATION INDEX IL-2 / STIMULATION INDEX IFN-γ / STIMULATION INDEX IL-4: fold over medium control; undetectable control set to 1.00; conditions: Patient 409 primary 36 hour culture; for STIMULATION INDEX IL-2 / STIMULATION INDEX IFN-γ / STIMULATION INDEX IL-4: 20 micrograms TRFP/ml or 50 micrograms peptide/ml; for STIMULATION INDEX IL-2: medium not detectable, lowest measurable response set at 1.00; for STIMULATION INDEX IFN-γ / STIMULATION INDEX IL-4: relative to medium control; for RATIO IFN/IL-4 / RATIO IL-2/IL-4: ratio of stimulation indices
Method: Peripheral blood mononuclear cells (PBMC) were purified from cat-allergic patients as described in Example 5. Five x 10^6 PBMC were cultured at 2 x 10^6/ml for 36 hours in the presence of medium only, 20 micrograms purified TRFP/ml or 50 micrograms peptide/ml. The cells were then washed two times with phosphate buffered saline (PBS, pH 7.2) and lysed with 2 ml […] guanidinium isothiocyanate, 0.5% Sarkosyl, 5 mM sodium citrate, 0.1 M 2-mercaptoethanol, pH 7.0. The lysate was then forced through a 26 gauge needle to shear genomic DNA, and was layered onto a 2 ml cushion of 5.7 M CsCl, 0.01 M EDTA, pH 7.5 in diethylpyrocarbonate (DEPC)-treated water. The lysate was centrifuged at 35,000 RPM in a Beckman SW41 rotor for 18 hours at 20°C. The RNA pellet was resuspended in 0.4 ml TE (10 mM Tris, 1 mM EDTA) pH 7.5, 0.1% SDS, and then extracted three times with 0.5 ml phenol/0.2 ml chloroform. The RNA was then precipitated on dry ice with 2.5 volumes ice-cold ethanol, 1/10 volume 3 M sodium acetate, pH 5.2 in DEPC-treated water, rinsed once with 70% ethanol in DEPC-treated water, and dried. The RNA pellet was resuspended in 2 microliters TE, pH 7.5 in DEPC-treated water.
Total cellular RNA was converted to cDNA using the Superscript kit (BRL, Bethesda, MD). Two microliters of RNA were added to one microliter oligo (dT)12-18 (500 micrograms/ml) and 9 microliters water. The sample was heated to 70°C for 10 minutes and ice quenched. Four microliters 5X buffer were added to the sample along with 2 microliters 0.1 M DTT and 1 microliter dNTP mix (10 mM each, dATP, dCTP, dGTP, dTTP). One microliter reverse transcriptase (200U) was added and the reaction was carried out for one hour at 42°C. The reaction was terminated by incubation of the sample at 90°C for five minutes and stored at -80°C.
Ten-fold serial dilutions of T cell cDNA in 10 mM TRIS, pH 7.5 were amplified using the standard kit and protocol recommended by Perkin Elmer-Cetus (Redwood City, CA). Each sample received 26.65 microliters water, 5 microliters 10X PCR buffer, 8 microliters of dNTP mix (1.25 mM each of dATP, dCTP, dGTP and dTTP), 0.1 microliter alpha ^32P-dCTP (3000 Ci/mmol), 0.25 microliter AmpliTaq, 5 microliters cDNA and 5 microliters cytokine-specific 5' and 3' primers (20 micromolar). The primers used for most cytokines and the beta-actin control were purchased from Clontech (Redwood City, CA). The human IL-4 primers were purchased from Research Genetics (Huntsville, AL) and had the following sequences: [formula]
The reactions were carried out after overlaying each sample with one drop of mineral oil, with the following program in a programmable thermal cycler (MJ Research, Cambridge, MA).
The PCR products were extracted once with 25 microliters chloroform and 25 microliters of each sample were then electrophoresed on an 8% polyacrylamide gel at 250 V. The gel was dried and exposed to pre-flashed x-ray film. Several exposures of each gel were then scanned using a Shimadzu flying spot laser densitometer. Values on the linear portion of the titrations were then compared to the medium control values to obtain a stimulation index for each sample. Primers for beta-actin were included as a control for general cDNA levels in each sample. Where the medium control values are not detectable, the lowest measurable response was set at 1.00. In other experiments, levels of cytokine cDNA can be compared directly with previously amplified cytokine-specific cDNAs as standards. Thus, absolute levels of particular cytokine cDNAs can be compared from one sample to another and from one experiment to another. In this experiment, IL-2, IL-4 and IFN-gamma levels were measured. […] This analysis will be expanded to studies of other cytokines involved in the generation of allergic responses, such as IL-5, IL-8, IL-9, TGF-beta. Samples of cDNA from each treatment can also be saved for later analysis once additional cytokines are identified and sequenced. […]

[4] = Chain #1 TRFP peptides, average cpm with antigen divided by cpm of T cells and antigen presenting cells alone, responding patients, SI ≥ 2.5 positive
[5] = Chain #1 TRFP peptides, cat allergic patients, average SI of all responding patients multiplied by percent of patients with a positive response
[6] = Chain #2 TRFP peptides, cat allergic patients, average SI of responding patients multiplied by percent positive
[7] = Chain #2 TRFP peptides, cat allergic patients, average of responding patients

Substance | T cell proliferation (cpm) following Antigenic challenge: Fel 8-3 ([1]; label = tolerance treatment over 5 days, challenge with Fel 8-3) | T cell proliferation (cpm) following Antigenic challenge: Ragweed Peptide ([1]; label = tolerance treatment over 5 days, challenge with Ragweed Peptide) | T cell proliferation (cpm) following Antigenic challenge: TRFP ([1]; label = tolerance treatment over 5 days, challenge with TRFP) | T cell proliferation (cpm) following Antigenic challenge: - ([1]; label = tolerance treatment over 5 days, no challenge antigen) | T cell proliferation (cpm) following Antigenic challenge ([1]; no tolerance treatment (-), label = challenge antigen) | SI [2, 4] | PI [2, 5] | T cell stimulatory activity ([2]; result in words) | secondary T cell response of peripheral blood lymphocytes ([2]; patient 131, Figure 9, result in words) | STIMULATION INDEX IL-2 [3] | STIMULATION INDEX IFN-γ [3] | STIMULATION INDEX IL-4 [3] | RATIO IFN/IL-4 [3] | RATIO IL-2/IL-4 [3] | PI [2, 6] | SI [2, 7]
Fel 8-3: TRFP chain 1 peptide, amino acids 7 - 33 (KRDVDLFLTGTPDEYVEQVAQYKALPV; UniProt P30438 29-55, looked up, fragment) | 3,850 cpm | 5,130 cpm | 12,320 cpm | 1,270 cpm | 58,150 cpm | 16.9 | 1437 | powerful activity | – | – | – | – | – | – | – | –
Fel 8: TRFP chain 1 peptide, amino acids 1 - 30 (EICPAVKRDVDLFLTGTPDEYVEQVAQYKA; UniProt P30438 23-52, looked up, fragment) | – | – | – | – | – | 18.1 | 1393 | most dominant T-cell epitopes | respond | 1.0 | 1.8 | 0.3 | 6.0 | 3.3 | – | –
Fel 14: TRFP chain 1 peptide, amino acids 18 - 43 (PDEYVEQVAQYKALPVVLENARILKN; UniProt P30438 40-65, looked up, fragment) | – | – | – | – | – | 13.7 | 1054 | powerful activity | – | 106.9 | 75.0 | 1.9 | 39.5 | 56.3 | – | –
Fel 17: TRFP chain 2 peptide, amino acids 12 - 33 (DVFFAVANGNELLLDLSLTKVN; UniProt P30440 29-50, looked up, fragment) | – | – | – | – | – | – | – | – | – | 315.1 | 82.4 | 7.5 | 11.0 | 42.0 | 421 | 6.1
Fel 20-1: TRFP chain 2 peptide, amino acids 34 - 59 (ATEPERTAMKKIQDCYVENGLISRVL; UniProt P30440 51-76, looked up, fragment) | – | – | – | – | – | – | – | – | – | – | 12.0 | 4.6 | 2.6 | – | 395 | 5.9
Fel 25: TRFP chain 2 peptide, amino acids 49 - 68 (YVENGLISRVLDGLVMTTIS; UniProt P30440 66-85, looked up, fragment) | – | – | – | – | – | – | – | – | – | 2.9 | 12.7 | 2.5 | 5.1 | 1.2 | 350 | 7.6
Fel 28: TRFP chain 2 peptide, amino acids 60 - 82 (DGLVMTTISSSKDCMGEAVQNTV; UniProt P30440 77-99, looked up, fragment) | – | – | – | – | – | – | – | weakest T cell epitope containing region of TRFP | – | – | 3.8 | 0.5 | 7.6 | – | 94 | 3.6
Fel 29: TRFP chain 2 peptide, amino acids 74 - 92 (MGEAVQNTVEDLKLNTLGR; UniProt P30440 91-109, looked up, fragment) | – | – | – | – | – | – | – | – | – | 1.2 | 3.0 | 1.1 | 2.7 | 1.1 | 259 | 5.5
